According to patent publication US11905281B2 (Amgen Inc., priority 2017, dated 2024):

Columns and labels:
[1] = system: Phosphorylation of ERK1/2 in A549 cells; assay: Phospho-ERK1/2 MSD Assay, A549 (Table 16 conditions: 2 hours compound treatment); assay type: cell-based; details: Homo sapiens, 10 ng/mL EGF for 10 min, read-out: p-ERK IC50 (A549)
Procedure: (§1) For compounds in Table 16, the following assay conditions were employed:
Phospho-ERK1/2 MSD Assay: MIA PaCa-2 (ATCC® CRL-1420™) and A549 (ATCC® CCL-185™) cells were cultured in RPMI 1640 Medium (ThermoFisher Scientific 11875093) containing 10% fetal bovine serum (ThermoFisher Scientific 16000044) and 1× penicillin-streptomycin-glutamine (ThermoFisher Scientific 10378016). Sixteen hours prior to compound treatment, MIA PaCa-2 or A549 cells were seeded in 96-well cell culture plates at a density of 25,000 cells/well and incubated at 37° C., 5% CO2. A compound dose-response titration was diluted in growth media, added to appropriate wells of a cell culture plate, and then incubated at 37° C., 5% CO2 for 2 hours. Following compound treatment, cells were stimulated with 10 ng/mL EGF (Roche 11376454001) for 10 min, washed with ice-cold Dulbecco's phosphate-buffered saline, no Ca^2+ or Mg^2+ (ThermoFisher Scientific 14190144), and then lysed in RIP A buffer (50 mM Tris-HCl pH 7.5, 1% Igepal, 0.5% sodium deoxycholate, 150 mM NaCl, and 0.5% sodium dodecyl sulfate) containing protease inhibitors (Roche 4693132001) and phosphatase inhibitors (Roche 4906837001). […] Assay plates were read on a Meso Scale Discovery Sector Imager 6000, and data were analyzed using a 4-parameter logistic model to calculate IC50 values.

[2] = system: Phosphorylation of ERK1/2 in MIA PaCa-2 cells; assay: Phospho-ERK1/2 MSD Assay, MIA PaCa-2 (Table 16 conditions: 2 hours compound treatment); assay type: cell-based; details: 10 ng/mL EGF for 10 min, read-out: p-ERK IC50 (MIA PaCa-2)
Procedure: as §1
Sixteen hours prior to compound treatment, MIA PaCa-2 or A549 cells were seeded in 96-well cell culture plates at a density of 25,000 cells/well and incubated at 37° C., 5% CO2. A compound dose-response titration was diluted in growth media, added to appropriate wells of a cell culture plate, and then incubated at 37° C., 5% CO2 for 2 hours. […] Phosphorylation of ERK1/2 in compound-treated lysates was assayed using Phospho-ERK1/2 Whole Cell Lysate kits (Meso Scale Discovery K151DWD) according to the manufacturer's protocol. Assay plates were read on a Meso Scale Discovery Sector Imager 6000, and data were analyzed using a 4-parameter logistic model to calculate IC50 values.

[3] = target: T1, GDP-bound KRAS protein (aa 1-169), containing both G12C and C118A amino acid substitutions (Homo sapiens, UniProt P01116, C118A/G12C); assay: Coupled Nucleotide Exchange Assay (Table 16 conditions: 5 min pre-incubation); assay type: biochemical; details: 5 min compound pre-incubation; SOS-mediated nucleotide exchange, AlphaScreen
Procedure: as §1
The assay plates were then read on a PerkinElmer EnVision Multilabel Reader, using AlphaScreen® technology, and data were analyzed using a 4-parameter logistic model to calculate IC50 values.

[4] = system: Phosphorylation of ERK1/2 in MIA PaCa-2 cells; assay: Phospho-ERK1/2 MSD Assay, MIA PaCa-2 (Table 15 conditions: 4 hours compound treatment); assay type: cell-based; details: Homo sapiens, MIA PaCa-2, 4 h, EGF stimulation, read-out: p-ERK IC50 (MIA PaCa-2)
Procedure: (§2) For compounds in Table 15, the following assay conditions were employed:
(§3) Phospho-ERK1/2 MSD Assay: MIA PaCa-2 (ATCC® CRL-1420™) and A549 (ATCC® CCL-185™) cells were cultured in RPMI 1640 Medium (ThermoFisher Scientific 11875093) containing 10% fetal bovine serum (ThermoFisher Scientific 16000044) and 1× penicillin-streptomycin-glutamine (ThermoFisher Scientific 10378016). Sixteen hours prior to compound treatment, MIA PaCa-2 or A549 cells were seeded in 96-well cell culture plates at a density of 25,000 cells/well and incubated at 37° C., 5% CO2. A compound dose-response titration was diluted in growth media, added to appropriate wells of a cell culture plate, and then incubated at 37° C., 5% CO2 for 4 hours. Following compound treatment, cells were stimulated with 10 ng/mL EGF (Roche 11376454001) for 10 min, washed with ice-cold Dulbecco's phosphate-buffered saline, no Ca^2+ or Mg^2+ (ThermoFisher Scientific 14190144), and then lysed in RIP A buffer (50 mM Tris-HCl pH 7.5, 1% Igepal, 0.5% sodium deoxycholate, 150 mM NaCl, and 0.5% sodium dodecyl sulfate) containing protease inhibitors (Roche 4693132001) and phosphatase inhibitors (Roche 4906837001). Cell lysates were stored frozen at −80° C. overnight. Phosphorylation of ERK1/2 in compound-treated lysates was assayed using Phospho-ERK1/2 Whole Cell Lysate kits (Meso Scale Discovery K151DWD) according to the manufacturer's protocol. Assay plates were read on a Meso Scale Discovery Sector Imager 6000, and data were analyzed using a 4-parameter logistic model to calculate IC50 values.

[5] = system: Phosphorylation of ERK1/2 in A549 cells; assay: Phospho-ERK1/2 MSD Assay, A549 (Table 15 conditions: 4 hours compound treatment); assay type: cell-based; details: Homo sapiens, A549, 4 h, EGF stimulation, read-out: p-ERK IC50 (A549)
Procedure: as §2, §3

[6] = target: T1, GDP-bound KRAS protein (aa 1-169), containing both G12C and C118A amino acid substitutions; assay: Coupled Nucleotide Exchange Assay (Table 15 conditions: 2 hours pre-incubation); assay type: biochemical; details: 2 hours compound pre-incubation (Table 15 conditions)
Procedure: as §2
Following compound pre-incubation, purified SOS protein (aa 564-1049) and GTP (Roche 10106399001) were added to the assay wells and incubated for an additional hour. […] The assay plates were then read on a PerkinElmer EnVision Multilabel Reader, using AlphaScreen® technology, and data were analyzed using a 4-parameter logistic model to calculate IC50 values.

T1 sequence (P01116 1-169 isoform P01116-2 G12C/C118A): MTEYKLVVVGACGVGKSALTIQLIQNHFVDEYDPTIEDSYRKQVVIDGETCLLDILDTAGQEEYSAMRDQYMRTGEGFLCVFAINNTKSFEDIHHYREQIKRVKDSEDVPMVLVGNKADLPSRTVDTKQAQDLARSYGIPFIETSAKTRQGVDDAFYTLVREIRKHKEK

C=CC(=O)N1CCN(c2nc(=O)n(-c3scnc3C(C)C)c3nc(-c4c(O)cccc4F)c(Cl)cc23)[C@@H](C)C1 [Example 48, 6-Chloro-7-(2-fluoro-6-hydroxyphenyl)-4-((2S)-2-methyl-4-(2-propenoyl)-1-piperazinyl)-1-(4-(2-propanyl)-1,3-thiazol-5-yl)pyrido[2,3-d]pyrimidin-2(1H)-one]
IC50 [1]: > 10000 nM | IC50 ([2]; Homo sapiens, MIA PaCa-2, MIA PaCa-2 cells): 63 nM | IC50 [3]: 81 nM

C=CC(=O)N1CCN(c2nc(=O)n(-c3c(C)cccc3C(C)C)c3nc(-c4c(O)cccc4F)c(Cl)cc23)[C@@H](C)C1 [Example 39, 6-Chloro-7-(2-fluoro-6-hydroxyphenyl)-1-(2-methyl-6-(2-propanyl)phenyl)-4-((2S)-2-methyl-4-(2-propenoyl)-1-piperazinyl)pyrido[2,3-d]pyrimidin-2(1H)-one]
IC50 [1]: > 100000 nM | IC50 ([2]; MIA PaCa-2 cells): 29 nM | IC50 [3]: 63 nM

C=CC(=O)N1CCN(c2nnc(-c3c(C)ccc4[nH]ncc34)c3cc(-c4c(O)cccc4F)c(Cl)cc23)CC1 [Example 10-12, 1-(4-(7-chloro-6-(2-fluoro-6-hydroxyphenyl)-4-(5-methyl-1H-indazol-4-yl)-1-phthalazinyl)-1-piperazinyl)-2-propen-1-one]
IC50 [4]: 22600 nM

C=CC(=O)N1CCN(c2snc3c(F)c(-c4cc(O)cc5ccccc45)c(Cl)cc23)C(C(C)C)C1 (racemic) [Example 2-10, 1-(4-(5-chloro-7-fluoro-6-(3-hydroxy-1-naphthalenyl)-2,1-benzothiazol-3-yl)-3-(2-propanyl)-1-piperazinyl)-2-propen-1-one]
IC50 [5]: > 100000 nM | IC50 [4]: 3070 nM | Coupled exchange IC50 [6]: 1730 nM
